Measurements from US6344457B1, “Amino acid derivatives inhibiting extracellular matrix metalloproteinase and TNF alpha release” (Chiesi Farmaceutici S.p.A., priority 1997, dated 2002).
Like-named read-outs stand apart in the source and are kept apart here. Blank lines part the entries; values can stand above or below the molecule they belong to.

What was measured:
[1] = target: T1, collagenase of the human monocytic stock U937 (Homo sapiens, UniProt P03956); assay: Activity on collagenase; assay type: biochemical; settings: radiomarked collagen, 27° C., 16 hours; read-out: C150 (nM) collagenase
T1 construct: the collagenase of the human monocytic stock U937; endogenous in cells; host or cells: U937 human monocytic cell line
T1 sequence (P03956 100-469): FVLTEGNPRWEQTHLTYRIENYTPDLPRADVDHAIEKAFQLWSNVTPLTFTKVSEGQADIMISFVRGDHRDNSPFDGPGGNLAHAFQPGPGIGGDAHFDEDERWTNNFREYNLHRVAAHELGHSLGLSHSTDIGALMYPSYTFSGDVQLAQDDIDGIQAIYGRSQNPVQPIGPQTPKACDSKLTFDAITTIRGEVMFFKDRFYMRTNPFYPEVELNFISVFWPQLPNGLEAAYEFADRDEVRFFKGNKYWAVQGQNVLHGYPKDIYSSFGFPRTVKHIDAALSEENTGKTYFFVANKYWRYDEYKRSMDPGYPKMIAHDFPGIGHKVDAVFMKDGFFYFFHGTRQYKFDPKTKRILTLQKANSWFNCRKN
Method: The collagenase was incubated at 27° C. for 16 hours with radiomarked collagen, and its activity was determined by the release of soluble peptides produced by the enzymatic breakdown of the collagen. The inhibiting concentration C150 for each compound was determined by measurement of the activity of the enzyme in the presence of the inhibitor at a concentration ranging between 10^−7 and 10^−12 M (the inhibitor is dissolved at a concentration of 10^−2 M in DMSO, then diluted successively by tenths in the buffer: Tris, HCl 150 mM, pH 7.5; NaCl 0.15 M; CaCl2 10 mM).

[2] = test system: release of TNF from the peritoneal macrophages of mice stimulated by LPS; assay: Inhibition of the production of TNF in vitro; assay type: cell-based; settings: Peritoneal macrophage; mouse peritoneal macrophages, LPS 100 ng/ml; read-out: C150 (μM) TNF
Method: The capacity of the compounds according to this invention to inhibit the release of TNF was determined from the peritoneal macrophages of mice stimulated by LPS (Lang, F., Robert, […], Petit, J. Y., J. Pharmacol. Exp. Ther., 275, 171-176, 1995). After an adhesion phase of 2 hours, the cells were treated for 1 hour with the compound to be tested at concentrations ranging between 10^-6 to 10^-9 M (the inhibitor is dissolved in DMSO at 10^-2 M, then at 5.10^-3 M in RPMI 1640 with 5% SVF, then diluted successively by tenths in the same medium), then stimulated by the addition of LPS (100 ng/ml in final concentration). Three hours later, the biological activity of the TNF in the supernatants was determined by a cytotoxicity test using the murine stock L929 in accordance with the operating procedure described by Band, G., Lin, […]., Evans, C. H. (Bioch. Biophys. Acta, 1134, 309-318, 1982). The pg/ml concentration of the TNF of the samples was determined from a murine αTNF standard curve, thus making it possible to define the inhibiting concentration […] of the compounds studied.

[3] = target: 92 kDa gelatinase of human origin (Homo sapiens, UniProt P14780); assay: Activity on gelatinase, radiomarked gelatin; assay type: biochemical; settings: test performed with radiomarked gelatin; read-out: C150 (nM) gelatinase 92 kDa*
Sequence of 92 kDa gelatinase of human origin (P14780 94-707): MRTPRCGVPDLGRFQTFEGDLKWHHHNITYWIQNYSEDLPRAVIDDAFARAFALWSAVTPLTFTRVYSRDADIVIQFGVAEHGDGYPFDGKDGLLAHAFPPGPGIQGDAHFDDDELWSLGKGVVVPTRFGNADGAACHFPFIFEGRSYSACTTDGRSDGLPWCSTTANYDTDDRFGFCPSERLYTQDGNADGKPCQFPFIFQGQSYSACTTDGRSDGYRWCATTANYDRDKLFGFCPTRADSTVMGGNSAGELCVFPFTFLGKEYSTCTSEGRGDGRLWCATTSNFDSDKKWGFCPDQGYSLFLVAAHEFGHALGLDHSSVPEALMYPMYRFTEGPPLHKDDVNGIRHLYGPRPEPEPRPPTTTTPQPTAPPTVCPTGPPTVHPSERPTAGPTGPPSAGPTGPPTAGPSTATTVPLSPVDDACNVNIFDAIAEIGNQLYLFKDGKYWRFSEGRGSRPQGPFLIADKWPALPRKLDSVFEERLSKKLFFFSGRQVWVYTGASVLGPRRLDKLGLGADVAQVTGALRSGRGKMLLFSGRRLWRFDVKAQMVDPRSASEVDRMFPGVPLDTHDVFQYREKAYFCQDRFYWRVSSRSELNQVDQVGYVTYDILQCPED
Method: The anti-gelatinase activity of the compounds according to the invention also was determined on 92 kDa or 72 kDa gelatinase of human origin, in accordance with the operating mode described by Harris, E. D., Krane, S. M.; (Biochem. Biophys. Acta, 258, 566-576, 1972).
The gelatinase was incubated at 37° C. for 16 hours with radiomarked gelatin, and its activity was determined by the release of the soluble peptides produced by the enzymatic breakdown of the gelatin. The inhibiting concentration C150 for each compound was determined by measurement of the activity of the enzyme in the presence of the inhibitor at a concentration ranging between 10^−7 and 10^−12 M (the inhibitor is dissolved in the same manner as for collagenase).

[4] = Determination of bioavailability (blood levels, ex-vivo bioassay); assay type: in vivo; settings: mice
Method: The compounds of this invention were administered i.p. or p.o. between 1 and 50 mg/kg to mice: the blood levels then were determined by an ex-vivo bioassay according to Wang X. et al. (Cancer Res., 54, 4726-4728, 1994). The introduction of an OH group systematically increases the bioavailability of the products.

[5] = mouse, blood, ip, 50 mg/kg, 50 mg/kg i.p., read-out: blood level, I.p. method, 1 h
[6] = mouse, blood, po, 50 mg/kg, 50 mg/kg p.o., read-out: blood level, P.o. method, 1 h
[7] = mouse, blood, ip, 50 mg/kg, 50 mg/kg i.p., 10′, read-out: blood level, I.p. method, 10′
[8] = mouse, blood, ip, 50 mg/kg, 50 mg/kg i.p., 20′, read-out: blood level, I.p. method, 20′
[9] = mouse, blood, ip, 50 mg/kg, 50 mg/kg i.p., read-out: blood level, I.p. method, 40′
[10] = mouse, blood, po, 50 mg/kg, 50 mg/kg p.o., 10′, read-out: blood level, P.o. method, 10′
[11] = mouse, blood, po, 50 mg/kg, 50 mg/kg p.o., 20′, read-out: blood level, P.o. method, 20′
[12] = mouse, blood, po, 50 mg/kg, 50 mg/kg p.o., 24 h, read-out: blood level, P.o. method, 24 h

- IC50 [1]: 2.4 nM
- IC50 [2]: 0.13 µM
SMILES: CNC(=O)[C@H](Cc1cccc(Cl)c1)NC(=O)[C@](O)(CC(C)C)[C@H](C)C(=O)NO [Example 22, N-2(S)-[1(S) hydroxycarbamoyl-1 ethyl]-2(S) hydroxy-4-methylpentanoyl L-3-chlorophenylalanine N-methylamide]

- IC50 [3]: 1.7 nM
SMILES: CC(C)C[C@@](O)(C(=O)N[C@@H](Cc1ccc(Cl)cc1)C(=O)NCCC#N)[C@H](C)C(=O)NO [Example 27, N-2(S)[1(S) hydroxycarbamoyl-1 ethyl]-2(S)hydroxy-4-methylpentanoyl L-4-chlorophenylalanine N-(2-cyano-1-ethyl) amide]

- blood level, I.p. method, 10′ ([4]; 50 mg/kg i.p., 10′): 87000 ng/mL
- blood level, I.p. method, 20′ ([4]; 50 mg/kg i.p., 20′): 13000 ng/mL
- blood level, P.o. method, 10′ ([4]; 50 mg/kg p.o., 10′): 5100 ng/mL
- blood level, P.o. method, 20′ ([4]; 50 mg/kg p.o., 20′): 3100 ng/mL
- blood level, P.o. method, 24 h ([4]; 50 mg/kg p.o., 24 h): <300 ng/mL
- concentration at 1 h [4, 5]: 1700 ng/mL
- concentration at 24 h ([4]; mouse, blood, ip, 50 mg/kg, 50 mg/kg i.p., 24 h, read-out: blood level, I.p. method, 24 h): 300 ng/mL
- concentration at 1 h [4, 6]: 400 ng/mL
SMILES: CC(C)C[C@@](O)(C(=O)N[C@@H](Cc1ccc(Cl)cc1)C(=O)NCCN1CCOCC1)[C@H](C)C(=O)NO [drawing 116]

- concentration at 10 min [4, 7]: 56000 ng/mL
- concentration at 20 min [4, 8]: 22000 ng/mL
- concentration at 1 h [4, 5]: 3500 ng/mL
SMILES: CNC(=O)[C@@H](NC(=O)C(O)(CC(C)C)[C@H](C)C(=O)NO)C(C)(C)C (stereo partly drawn)

- IC50 [3]: 8 nM
- IC50 [1]: 22 nM
SMILES: CC(C)C[C@@](O)(C(=O)NC(Cc1ccc(Cl)cc1)C(=O)NCCN1CCOCC1)[C@H](C)C(=O)NO (stereo partly drawn) [Example 12b]

- concentration at 10 min [4, 7]: 20000 ng/mL
- concentration at 20 min [4, 8]: 9000 ng/mL
- concentration at 40 min [4, 9]: 47000 ng/mL
- concentration at 10 min [4, 10]: 2200 ng/mL
- concentration at 20 min [4, 11]: 4300 ng/mL
- concentration at 30 min ([4]; mouse, blood, po, 50 mg/kg, 50 mg/kg p.o., 30′, read-out: blood level, P.o. method, 30′): 300 ng/mL
- concentration at 1 h [4, 6]: 500 ng/mL
- concentration at 24 h [4, 12]: 170 ng/mL
SMILES: CNC(=O)[C@@H](NC(=O)[C@H](CC(C)C)[C@H](O)C(=O)NO)C(C)C

- concentration at 10 min [4, 7]: 20000 ng/mL
- concentration at 20 min [4, 8]: 0 ng/mL
- concentration at 40 min [4, 9]: 4000 ng/mL
- concentration at 10 min [4, 10]: 10000 ng/mL
- concentration at 20 min [4, 11]: 9000 ng/mL
- concentration at 1 h [4, 6]: 9000 ng/mL
- concentration at 24 h [4, 12]: 9000 ng/mL
SMILES: CNC(=O)[C@H](Cc1ccc(OC)cc1)NC(=O)C(O)(CC(C)C)[C@H](O)C(=O)NO (stereo partly drawn)

- concentration at 10 min [4, 7]: 4500 ng/mL
- concentration at 20 min [4, 8]: 7800 ng/mL
- concentration at 40 min [4, 9]: 4400 ng/mL
- concentration at 10 min [4, 10]: 100 ng/mL
- concentration at 20 min [4, 11]: 100 ng/mL
SMILES: CC(C)C[C@@](O)(C(=O)N[C@@H](Cc1ccc(Cl)c(Cl)c1)C(=O)NCCOCCO)[C@H](C)C(=O)NO [drawing 120]

- concentration at 10 min [4, 10]: 600 ng/mL
- concentration at 20 min [4, 11]: 300 ng/mL
- concentration at 40 min ([4]; mouse, blood, po, 50 mg/kg, 50 mg/kg p.o., read-out: blood level, P.o. method, 40′): 600 ng/mL
SMILES: CNC(=O)C(Cc1ccc(Cl)c(Cl)c1)NC(=O)[C@](O)(CC(C)C)[C@H](C)C(=O)NO (stereo partly drawn)

- IC50 [3]: 0.6 nM
- IC50 [2]: 4.4 µM
SMILES: CNC(=O)[C@H](Cc1c[nH]c2ccccc12)NC(=O)[C@](O)(CC(C)C)[C@H](C)C(=O)NO [Example 26, N-2-(S)[1(S) hydroxycarbamoyl-1 ethyl]-2(S)hydroxy-4-methylpentanoyl L-tryptophan N-methylamide]

- IC50 [2]: 1.6 µM
SMILES: CC(C)C[C@@](O)(C(=O)NC(Cc1ccc(Cl)cc1)C(=O)NCCN1CCOCC1)C(C)C(=O)NO (stereo partly drawn) [Example 12b]
